Test results from patent US12116358B2, “Substituted indoles and methods of use thereof” (EPIZYME, INC., priority 2018, dated 2024).
Like-named read-outs stand apart in the source and are kept apart here.

Legend:
H3K36me3 in A549 cells = experiment: In-Cell Western (ICW) assay of SETD2 inhibitors (A549 assay); format: cell-based, human; settings: A549 cells, read-out: SETD2 A549
Method in brief: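 H3K36me3 In-Cell Western: cells exposed to compound for 3 days at 4,000 cells/well, 37° C. DRAQ5 (1:1000) marked cell number, with 700/800-channel Licor read-out.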

KMS-34 cells = experiment: 14 day KMS-34 long term proliferation (LTP) assay; settings: read-out: LTP Day 14 Abs IC50
Experimental: 14 Day KMS-34 Long Term Proliferation (LTP) Assay
Incubate plates for 96 hrs.
The final concentration is 1 μm.
To calculate growth for days 4, 7, 11, and 14:
1. Calculate the split factor for day 4 to 7, day 7 to 11, and day 11-14 The split factor is the viable cells/mL on Day X (either 4, 7, or 11) divided by the density the cells are being split back to.
2. For growth of cells from day 4 to 7, multiply the day 7 viable cells/mL density by the split factor from day 4.
4. For growth of cells from Day 11 to 14, multiply the Day 14 viable cells/mL density by the days 4, 7, and 11 split factors.
5. Plot growth on semi-log chart (viable cells/mL on Y axis, in log, and days on X axis).
From 5 mM to 0.25 μm. […] Mix well by pipetting up and down.

SETD2(1434-1711) = target: T1, SETD2(1434-1711) (Homo sapiens, UniProt Q9BYW2); experiment: SETD2 (1434-1711) assay; format: biochemical; settings: read-out: SETD2 (1434-1711)
T1 construct: SETD2 (1434-1711) Assay; catalogue N/A
T1 sequence (Q9BYW2 1434-1711): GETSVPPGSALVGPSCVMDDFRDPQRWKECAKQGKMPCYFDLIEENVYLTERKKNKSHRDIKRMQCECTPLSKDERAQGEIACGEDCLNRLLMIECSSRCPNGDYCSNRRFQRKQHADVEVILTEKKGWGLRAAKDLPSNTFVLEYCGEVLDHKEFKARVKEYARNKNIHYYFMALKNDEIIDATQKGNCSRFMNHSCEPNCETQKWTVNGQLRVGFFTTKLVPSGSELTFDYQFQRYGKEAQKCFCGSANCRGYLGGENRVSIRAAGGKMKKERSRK

Structure (SMILES)	IC50 (H3K36me3 in A549 cells) [nM]	IC50 (SETD2(1434-1711)) [nM]	IC50 (H3K36me3 in A549 cells; Homo sapiens) [nM]	IC50 (KMS-34 cells; KMS-34 cells, day 14) [nM]	IC50 (KMS-34 cells; Homo sapiens, KMS-34, 336 h) [nM]
CC(=O)N1CCN(c2cc(F)cc(NC(=O)c3cc4c(F)ccc(C)c4[nH]3)c2)CC1 [compound 7]	40			60	
Cc1ccc(F)c2cc(C(=O)Nc3cc(F)cc(N4CCC(N5CCOCC5)C4)c3)[nH]c12 (stereo not shown) [compound 11]	40	6		90	
Cc1ccc(F)c2cc(C(=O)Nc3cc(Cl)cc(N4CCC(N5CCOCC5)C4)c3)[nH]c12 (stereo not shown) [compound 22]	60	10		110	
CC(=O)N1CCN(c2cc(Cl)cc(NC(=O)c3cc4c(F)ccc(C)c4[nH]3)c2)CC1 [compound 31]	80	10		130	
CC(=O)N1CCN(c2cccc(NC(=O)c3cc4c(F)ccc(C)c4[nH]3)c2)CC1C (stereo not shown) [compound 32]	80	20		110	
CC(=O)N1CCN(c2cccc(NC(=O)c3cc4c(F)ccc(C)c4[nH]3)c2)CC1 [compound 34]	80			250	
Cc1ccc(F)c2cc(C(=O)Nc3cccc(-c4cncnc4)c3)[nH]c12 [compound 64]	100	60		380	
Cc1nnc(-c2cccc(NC(=O)c3cc4c(F)ccc(C)c4[nH]3)c2)s1 [compound 65]	100	20		280	
Cc1ccc(F)c2cc(C(=O)Nc3cccc(N4CCOC4=O)c3)[nH]c12 [compound 66]		30	200		420
Cc1ccc(F)c2cc(C(=O)Nc3cccc(N4CCC(N5CCOCC5)CC4)c3)[nH]c12 [compound 76]	200	30		360	
Cc1ccc(F)c2cc(C(=O)Nc3cccc(N4CCOC(CO)C4)c3)[nH]c12 (stereo not shown) [compound 115]	200	50		260	
Cc1ccc(F)c2cc(C(=O)Nc3cccc4cnccc34)[nH]c12 [compound 134]	300	60		800	
Cc1ccc(F)c2cc(C(=O)Nc3cccc(-c4cnn(C)c4)c3)[nH]c12 [compound 151]		80	300		580
Cc1ccc(F)c2cc(C(=O)Nc3cccc(-n4ccnc4)c3)[nH]c12 [compound 221]		100	500		930
CC(=O)N1CCN(C2CCCC(NC(=O)c3cc4c(F)ccc(C)c4[nH]3)C2)CC1 (stereo not shown) [compound 359]	> 2000			7800	
CC(=O)N1CCN(C2CCCC(NC(=O)c3cc4c(F)ccc(C)c4[nH]3)C2)CC1 (stereo not shown) [compound 372]	> 2000			10000	
CC(=O)N1CCN(C2CCCC(NC(=O)c3cc4c(F)ccc(C)c4[nH]3)C2)CC1 (stereo not shown) [compound 373]	> 2000			10000	
CC(=O)N1CCN(c2cccc(NC(=O)c3cc4cccc(C5CC5)c4[nH]3)c2)CC1 [compound 509]		22400	15400		2600
CCC(=O)N1CCN(C2CCCC(NC(=O)c3cc4c(F)ccc(C)c4[nH]3)C2)CC1C(F)(F)F (stereo not shown) [compound 1164]	> 2000	2100			
Cc1ccc(F)c2cc(C(=O)NC3CCCC(N4CCn5c(nccc5=O)C4)C3)[nH]c12 (stereo not shown) [compound 1165]	> 2000	3500			
Cc1ccc(F)c2cc(C(=O)NC3CCCC(N4CCn5c(c[nH]c5=O)C4)C3)[nH]c12 (stereo not shown) [compound 1166]	> 2000	1000			
CCC(=O)N1CCN(C2CCCC(NC(=O)c3cc4c(F)ccc(C)c4[nH]3)C2)CC1C(F)(F)F (stereo not shown) [compound 1167]	60	20			
CCC(=O)N1CCN(C2CCCC(NC(=O)c3cc4c(F)ccc(C)c4[nH]3)C2)CC1C(F)(F)F (stereo not shown) [compound 1168]	> 2000	1300			

The next lines start with results.

IC50 (H3K36me3 in A549 cells) [nM]	IC50 (SETD2(1434-1711)) [nM]	IC50 (H3K36me3 in A549 cells; Homo sapiens) [nM]	Structure (SMILES)	IC50 (KMS-34 cells; KMS-34 cells, day 14) [nM]	IC50 (KMS-34 cells; Homo sapiens, KMS-34, 336 h) [nM]
> 2000	900		CNC(=C[N+](=O)[O-])N1CCN(C2CCCC(NC(=O)c3cc4c(F)ccc(C)c4[nH]3)C2)CC1 (stereo not shown) [compound 1169]		
> 2000	1800		Cc1ccc(F)c2cc(C(=O)NC3CCCC(N4CCN(C(=O)NC5CCOCC5)CC4)C3)[nH]c12 (stereo not shown) [compound 1170]		
60	30		Cc1ccc(F)c2cc(C(=O)NC3CCCC(N4CCN(C(=O)C(C)C)C(C(F)(F)F)C4)C3)[nH]c12 (stereo not shown) [compound 1171]		
> 2000	3100		Cc1ccc(F)c2cc(C(=O)NC3CCCC(N4CCN(C(=O)C(C)C)C(C(F)(F)F)C4)C3)[nH]c12 (stereo not shown) [compound 1172]		
30	40		Cc1ccc(F)c2cc(C(=O)NC3CCCC(N4CCN(C(=O)CO)C(C(F)(F)F)C4)C3)[nH]c12 (stereo not shown) [compound 1173]		
> 2000	4800		Cc1ccc(F)c2cc(C(=O)NC3CCCC(N4CCN(C(=O)CO)C(C(F)(F)F)C4)C3)[nH]c12 (stereo not shown) [compound 1174]		
> 2000	8400		Cc1ccc(F)c2cc(C(=O)NC3CCCC(N4CCN(C(=O)C(C)C)C(C(F)(F)F)C4)C3)[nH]c12 (stereo not shown) [compound 1175]		
> 2000	2900		Cc1ccc(F)c2cc(C(=O)NC3CCCC(N4CCN(C(=O)CO)C(C(F)(F)F)C4)C3)[nH]c12 (stereo not shown) [compound 1176]		
300	30		CC(=O)N1CC2CN(C3CCCC(NC(=O)c4cc5c(F)ccc(C)c5[nH]4)C3)CC2C1 (stereo not shown) [compound 1177]		
> 2000	3900		CC(=O)N1CC2CN(C3CCCC(NC(=O)c4cc5c(F)ccc(C)c5[nH]4)C3)CC2C1 (stereo not shown) [compound 1178]		
800	500		Cc1ccc(F)c2cc(C(=O)NC3CCCC(N4CCn5c(cn(C)c5=O)C4)C3)[nH]c12 (stereo not shown) [compound 1179]		
	200	1800	Cc1ccc(F)c2cc(C(=O)N[C@H]3CCC[C@@H](C4=NNC(=O)CN4)C3)[nH]c12 [compound 1188]		
	600	> 2000	CC(=O)N1[C@H](C)CN([C@@H]2CCC[C@@H](NC(=O)c3cc4c(F)ccc(C)c4[nH]3)C2)C[C@H]1C [compound 1193]		
